Usually IC50 stands for the point on the concentration scale where inhibition reaches its midpoint.

This is an account of results in patent US9045435B2, “Quinazoline compounds as sodium channel blockers” (Purdue Pharma, L.P., priority 2010, dated 2015).

Read-outs that look alike come from different tables or passages of the source.

In experiment [1] the target is human Nav1.7 (Homo sapiens, UniProt Q15858). Put plainly: FLIPR or FLIPR TETRA sodium dye assay with KCl and test article pre-incubation. Format: cell-based.
human Nav1.7, sequence (Q15858 1-1977 isoform Q15858-3): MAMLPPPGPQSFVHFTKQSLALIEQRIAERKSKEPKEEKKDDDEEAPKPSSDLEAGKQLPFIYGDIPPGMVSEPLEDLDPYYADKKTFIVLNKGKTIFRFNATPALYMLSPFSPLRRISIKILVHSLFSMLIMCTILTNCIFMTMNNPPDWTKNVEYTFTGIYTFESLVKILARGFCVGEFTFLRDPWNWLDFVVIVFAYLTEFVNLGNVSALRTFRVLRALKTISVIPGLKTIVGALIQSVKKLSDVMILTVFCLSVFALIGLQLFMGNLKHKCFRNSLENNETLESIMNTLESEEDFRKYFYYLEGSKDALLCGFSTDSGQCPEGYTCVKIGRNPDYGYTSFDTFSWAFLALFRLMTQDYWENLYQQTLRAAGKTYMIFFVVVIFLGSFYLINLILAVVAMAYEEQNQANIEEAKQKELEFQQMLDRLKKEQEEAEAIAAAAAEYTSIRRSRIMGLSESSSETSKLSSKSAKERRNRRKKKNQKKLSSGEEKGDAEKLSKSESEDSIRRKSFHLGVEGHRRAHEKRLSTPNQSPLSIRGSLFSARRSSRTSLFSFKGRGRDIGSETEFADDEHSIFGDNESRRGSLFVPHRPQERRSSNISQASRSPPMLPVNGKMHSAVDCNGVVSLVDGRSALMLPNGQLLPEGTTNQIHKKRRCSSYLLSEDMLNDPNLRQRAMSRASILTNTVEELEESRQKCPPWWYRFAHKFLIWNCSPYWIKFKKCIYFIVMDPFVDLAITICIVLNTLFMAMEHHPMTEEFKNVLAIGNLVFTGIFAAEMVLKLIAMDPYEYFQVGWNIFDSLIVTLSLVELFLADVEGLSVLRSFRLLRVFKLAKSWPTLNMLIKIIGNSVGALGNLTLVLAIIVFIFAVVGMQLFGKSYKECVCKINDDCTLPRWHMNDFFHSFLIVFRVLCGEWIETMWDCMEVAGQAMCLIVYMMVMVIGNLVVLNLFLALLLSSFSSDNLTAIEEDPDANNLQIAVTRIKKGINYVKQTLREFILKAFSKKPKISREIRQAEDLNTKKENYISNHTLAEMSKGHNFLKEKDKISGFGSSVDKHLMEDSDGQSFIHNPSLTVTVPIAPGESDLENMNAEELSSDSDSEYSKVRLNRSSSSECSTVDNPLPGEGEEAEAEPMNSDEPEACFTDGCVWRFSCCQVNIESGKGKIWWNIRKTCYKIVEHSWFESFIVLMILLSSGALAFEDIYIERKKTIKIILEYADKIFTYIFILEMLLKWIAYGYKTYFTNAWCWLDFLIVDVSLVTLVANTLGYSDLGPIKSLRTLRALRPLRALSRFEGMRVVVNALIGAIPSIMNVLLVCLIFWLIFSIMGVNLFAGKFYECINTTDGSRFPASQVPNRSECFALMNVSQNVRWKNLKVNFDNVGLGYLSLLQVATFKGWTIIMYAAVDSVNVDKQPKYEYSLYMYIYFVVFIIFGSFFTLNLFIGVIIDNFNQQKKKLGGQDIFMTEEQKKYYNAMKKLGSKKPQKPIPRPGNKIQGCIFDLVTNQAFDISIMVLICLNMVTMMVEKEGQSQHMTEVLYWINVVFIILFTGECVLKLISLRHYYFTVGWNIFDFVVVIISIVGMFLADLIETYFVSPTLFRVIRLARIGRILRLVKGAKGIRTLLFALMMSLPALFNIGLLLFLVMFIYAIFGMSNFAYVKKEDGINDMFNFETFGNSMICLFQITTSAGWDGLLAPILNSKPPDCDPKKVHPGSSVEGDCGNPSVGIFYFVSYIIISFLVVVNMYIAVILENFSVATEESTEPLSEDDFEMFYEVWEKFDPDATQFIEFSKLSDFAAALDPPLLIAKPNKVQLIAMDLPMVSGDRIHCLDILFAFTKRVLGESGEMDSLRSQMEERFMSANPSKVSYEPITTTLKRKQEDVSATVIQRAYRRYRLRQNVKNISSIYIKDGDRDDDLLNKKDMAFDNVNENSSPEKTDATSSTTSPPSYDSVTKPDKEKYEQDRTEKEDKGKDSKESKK
Experiment [2] concerns the target hNav1.7 (Homo sapiens, UniProt Q15858). Put plainly: Electrophysiology (EP) assay, whole-cell patch clamp. Format: cell-based. As to conditions: for Kd: resting block dissociation constant, read-out: EP Nav1.7 Kr. The protocol:
The hNav1.7 expressing HEK-293 cells were plated on 35 mm culture dishes pre-coated with poly-D-lysine in standard DMEM culture media (Mediatech, Inc., Herndon, Va.) and incubated in a 5% CO2 incubator at 37° C. Cultured cells were used approximately 12-48 hours after plating.
On the day of experimentation, the 35 mm dish was placed on the stage of an inverted microscope equipped with a perfusion system that continuously perfuses the culture dish with fresh recording media. A gravity driven superfusion system was used to apply test solutions directly to the cell under evaluation. This system consists of an array of glass pipette glass connected to a motorized horizontal translator. The outlet of the shooter was positioned approximately 100 μm from the cell of interest.
Whole cell currents were recorded using the whole-cell patch clamp configuration using an Axopatch 200B amplifier (Axon Instruments, Foster City Calif.), 1322A A/D converter (Axon Instruments) and pClamp software (v. 8; Axon Instruments) and stored on a personal computer. Gigaseals were formed and the whole-cell configuration was established in voltage clamp mode, and membrane currents generated by hNav1.7 were recorded in gap-free mode. Borosilicate glass pipettes have resistance values between 1.5 and 2.0 MΩ when filled with pipette solution and series resistance (<5 MΩ) was compensated 75-80%. Signals were sampled at 50 kHz and low pass filtered at 3 kHz.
After establishing the whole-cell configuration in voltage clamp mode, voltage protocols were run to establish the 1) test potential, 2) holding potential, and 3) the conditioning potential for each cell.
After establishing the whole-cell configuration in voltage clamp mode, a standard I-V protocol was run to determine the potential at which the maximal current (Imax) is elicited. This potential was the test potential (Vt). To determine a conditioning potential at which 100% of channels were in the inactivated state, a standard steady-state inactivation (SSIN) protocol was run using a series of fifteen 100 ms-long depolarizing prepulses, incrementing in 10 mV steps, immediately followed by a 5 ms testing pulse, Vt, to Vmax. This protocol also permitted determination of the holding potential at which all channels are in the resting state.
For compounds causing significant retardation of recovery from inactivation, an estimate of the affinity for the inactivated state of the channel (Ki) was generated using the following protocol. From the negative, no residual inactivation, holding potential, the cell was depolarized to the conditioning voltage for 2-5 seconds, returned to the negative holding potential for 10-20 ms to relieve fast inactivation and then depolarized to the test potential for ˜15 ms. This voltage protocol was repeated every 10-15 seconds, first to establish a baseline in the absence of the test compound, then in the presence of the test compound.
After a stable baseline was established, the test compound was applied and block of the current elicited by the test pulse assessed. In some cases, multiple cumulative concentrations were applied to identify a concentration that blocked between 40-60% of this current. Washout of the compound was attempted by superfusing with control solution once steady-state block was observed. An estimate of the Ki was calculated as follows: Ki=[drug]*{FR/(1−FR)}, Eq. 1 where [drug] is the concentration of a drug, and FR=I(after drug)/I(control), Eq. 2 where I is the peak current amplitude. If multiple concentrations were used, Ki was determined from the fit of a logistic equation to FRs plotted against corresponding drug concentrations.
In the alternative, the voltage clamp protocol to examine hNav1.7 currents was as follows. […]
For orientation: The patch-clamp technique gives a direct electrical read-out from membranes.

Experiment [3] concerns the target Nav1.6 (Homo sapiens, UniProt Q9UQD0). The following applies: read-out: TTX IC50; cited from earlier work.
For experiment [4], the target named is Nav1.9 (Homo sapiens, UniProt Q9UI33). As to conditions: read-out: TTX IC50; cited from earlier work.
In experiment [5] the target is Nav1.3 (Homo sapiens, UniProt Q9NY46). The following applies: read-out: TTX IC50; cited from earlier work.
The target in experiment [6] is Nav1.2 (Homo sapiens, UniProt Q99250). As to conditions: read-out: TTX IC50; cited from earlier work.
Experiment [7] deals with Nav1.8 (Homo sapiens, UniProt Q9Y5Y9). As to conditions: read-out: TTX IC50; cited from earlier work.
Nav1.8, sequence (Q9Y5Y9 whole entry, looked up): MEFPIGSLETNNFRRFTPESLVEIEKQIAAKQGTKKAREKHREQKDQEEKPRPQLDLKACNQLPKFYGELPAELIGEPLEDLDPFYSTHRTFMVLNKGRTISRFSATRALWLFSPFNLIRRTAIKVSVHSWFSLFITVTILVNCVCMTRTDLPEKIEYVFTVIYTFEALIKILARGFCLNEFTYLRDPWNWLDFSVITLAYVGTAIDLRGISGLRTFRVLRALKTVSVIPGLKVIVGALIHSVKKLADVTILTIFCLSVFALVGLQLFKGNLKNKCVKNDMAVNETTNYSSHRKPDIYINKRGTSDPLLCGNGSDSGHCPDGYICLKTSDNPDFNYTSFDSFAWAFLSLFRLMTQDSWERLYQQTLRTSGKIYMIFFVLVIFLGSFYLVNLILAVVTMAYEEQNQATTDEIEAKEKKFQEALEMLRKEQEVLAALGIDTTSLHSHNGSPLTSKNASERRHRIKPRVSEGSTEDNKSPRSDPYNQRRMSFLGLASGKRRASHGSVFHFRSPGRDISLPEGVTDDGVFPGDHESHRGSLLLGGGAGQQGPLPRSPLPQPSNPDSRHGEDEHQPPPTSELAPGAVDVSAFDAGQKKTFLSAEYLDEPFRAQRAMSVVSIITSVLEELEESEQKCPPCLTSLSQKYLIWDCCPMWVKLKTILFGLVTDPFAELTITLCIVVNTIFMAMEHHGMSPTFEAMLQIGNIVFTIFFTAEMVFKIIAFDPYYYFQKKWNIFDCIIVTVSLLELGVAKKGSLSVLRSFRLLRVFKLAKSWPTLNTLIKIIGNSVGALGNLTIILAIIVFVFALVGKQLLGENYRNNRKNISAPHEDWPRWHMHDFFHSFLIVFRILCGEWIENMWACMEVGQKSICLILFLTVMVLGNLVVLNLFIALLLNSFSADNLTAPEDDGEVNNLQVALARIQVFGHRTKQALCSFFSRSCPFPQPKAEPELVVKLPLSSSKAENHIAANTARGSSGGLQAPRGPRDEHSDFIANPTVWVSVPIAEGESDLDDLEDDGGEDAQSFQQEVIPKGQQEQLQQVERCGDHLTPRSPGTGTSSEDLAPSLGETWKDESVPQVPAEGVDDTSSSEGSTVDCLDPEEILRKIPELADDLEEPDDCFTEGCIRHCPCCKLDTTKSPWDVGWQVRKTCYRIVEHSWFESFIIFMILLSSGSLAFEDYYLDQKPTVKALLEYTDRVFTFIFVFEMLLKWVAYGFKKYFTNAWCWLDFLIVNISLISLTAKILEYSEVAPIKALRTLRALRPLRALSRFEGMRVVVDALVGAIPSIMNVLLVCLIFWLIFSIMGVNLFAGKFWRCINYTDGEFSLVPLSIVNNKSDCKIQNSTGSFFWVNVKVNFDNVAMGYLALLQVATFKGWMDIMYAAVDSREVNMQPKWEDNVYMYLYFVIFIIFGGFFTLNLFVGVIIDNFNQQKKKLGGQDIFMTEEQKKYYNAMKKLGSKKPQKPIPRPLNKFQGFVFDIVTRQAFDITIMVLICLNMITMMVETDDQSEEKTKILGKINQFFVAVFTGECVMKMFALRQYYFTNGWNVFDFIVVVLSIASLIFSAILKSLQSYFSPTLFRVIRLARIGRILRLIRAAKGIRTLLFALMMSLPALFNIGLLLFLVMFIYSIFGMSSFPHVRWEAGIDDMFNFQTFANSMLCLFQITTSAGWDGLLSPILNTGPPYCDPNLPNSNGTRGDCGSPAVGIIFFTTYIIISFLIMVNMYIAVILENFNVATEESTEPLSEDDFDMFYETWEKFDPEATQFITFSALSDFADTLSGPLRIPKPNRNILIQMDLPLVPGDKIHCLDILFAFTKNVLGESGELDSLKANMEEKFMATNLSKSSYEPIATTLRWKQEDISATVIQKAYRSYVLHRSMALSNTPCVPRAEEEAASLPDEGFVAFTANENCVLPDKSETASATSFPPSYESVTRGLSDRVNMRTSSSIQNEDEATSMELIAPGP
The target in experiment [8] is Nav1.1 (Homo sapiens, UniProt P35498). As to conditions: read-out: TTX IC50; cited from earlier work.
[9] abbreviates: sodium dye assay with KCl, recombinant Nav1.7/HEK293 cells, read-out: FLIPR Nav1.7 IC50 (μM) ± SEM.
The mark [10] stands for this setting: affinity for the inactivated state of the channel, HEK-293 cells, spread on the next grid line, read-out: EP Nav1.7 Kj.
Where [11] appears, read: HEK-293 cells, spread on the next grid line.

hNav1.7, sequence (Q15858 1-1977 isoform Q15858-3): as the sequence (Q15858 1-1977 isoform Q15858-3) above

`NC(=O)c1nc(-c2ccc(Oc3ccccc3)cc2)c2ccccc2n1` [Compound 5, 4-(4-phenoxyphenyl)quinazoline-2-carboxamide]: the IC50 in experiment [1] (setting [9]) is 0.097 µM. Besides, the Ki in experiment [2] (setting [10]) worked out at 120 nM.
The like results for `NC(=O)[C@H](CO)Nc1nc(-c2ccc(Oc3ccc(F)cc3)cc2)c2ccccc2n1` [Compound 13a, (S)-2-{4-[4-(4-fluorophenoxy)phenyl]quinazolin-2-ylamino}-3-hydroxy-propionamide] were, in that order, 0.836 µM and 740 nM.
With `COC(=O)[C@@H]1CCCN1c1nc(-c2ccc(Oc3ccc(F)cc3)cc2)c2ccccc2n1` [Compound 13f, (S)-methyl 1-(4-(4-(4-fluorophenoxy)phenyl)-quinazolin-2-yl)pyrrolidine-2-carboxylate], the IC50 in experiment [1] (setting [9]) turned out to be 0.642 µM. The Ki in experiment [2] (setting [10]) stood at 620 nM. For the same compound, in experiment [2] (setting [11]), the Kd is 23900 nM.
Taken in the same sequence, the figures for `CN1CCN(c2nc(-c3ccc(Oc4ccc(F)cc4)cc3)c3ccccc3n2)CC1` [Compound 13k, 4-(4-(4-fluorophenoxy)phenyl)-2-(4-methylpiperazin-1-yl)quinazoline] were 0.418 µM, 70 nM and 2090 nM.
Regarding `NC(=O)[C@@H]1CCCN1c1nc(-c2ccc(Oc3ccc(F)cc3)cc2)c2ccccc2n1` [Compound 13l, (S)-1-(4-(4-(4-fluorophenoxy)phenyl)quinazolin-2-yl)pyrrolidine-2-carboxamide], the half-maximal inhibitory concentration (IC50) in experiment [1] (setting [9]) came out at 0.105 µM. In experiment [2] (setting [10]), the Ki was determined as 190 nM.
The like results for `OC[C@H](O)CNc1nc(-c2ccc(Oc3ccc(F)cc3)cc2)c2ccccc2n1` [Compound 13q, (R)-3-((4-(4-(4-fluorophenoxy)phenyl)quinazolin-2-yl)amino)propane-1,2-diol] were, in that order, 0.071 µM and 220 nM.
`CN1[C@@H]2CCC[C@H]1C[C@@H](Nc1nc(-c3ccc(Oc4ccc(F)cc4)cc3)c3ccccc3n1)C2` [Compound 13t, 4-(4-(4-fluorophenoxy)phenyl)-N-((1R,3S,5S)-9-methyl-9-azabicyclo[3.3.1]nonan-3-yl)quinazolin-2-amine] gave an IC50 in experiment [1] of 0.228 µM. In experiment [2], this compound displayed a Ki of 20 nM.
With `OCC(CO)Nc1nc(-c2ccc(Oc3ccc(F)cc3)cc2)c2ccccc2n1` [Compound 13u, 2-((4-(4-(4-fluorophenoxy)phenyl)quinazolin-2-yl)amino)propane-1,3-diol], in experiment [1] (setting [9]), the IC50 came out at 0.208 µM. Besides, in experiment [2] (setting [10]), the Ki amounted to 640 nM. Moreover, in experiment [2] (setting [11]), the Kd was 55300 nM.
Taken in the same sequence, the figures for `O=C1NCCN1CCNc1nc(-c2ccc(Oc3ccc(F)cc3)cc2)c2ccccc2n1` [Compound 13v, 1-(2-((4-(4-(4-fluorophenoxy)phenyl)quinazolin-2-yl)amino)ethyl)imidazolidin-2-one] were 0.204 µM, 460 nM and 23700 nM.
For `NC1=N[C@H](O)[C@H]2[C@H]3O[C@]4(O)O[C@@H]([C@@H](O)[C@@]2(N1)[C@@H]4O)[C@]3(O)CO` [TTX, tetrodotoxin], the IC50 in experiment [3] is 6 nM; in experiment [4], 1000 nM; in experiment [5], 15 nM; in experiment [6], 10 nM; in experiment [7], 50000 nM; in experiment [8], 10 nM.
